Results as given in the NIST ThermoML archive (doi:10.1016/j.jct.2012.01.008).

Test: xn = mol fraction of the nth substance listed
Conditions: Liquid, Vibrating tube method

CCC[N+]1(C)CCCCC1.O=S(=O)([N-]S(=O)(=O)C(F)(F)F)C(F)(F)F + COc1ccccc1
mass density [kg/m3]
Conditions | 100 kPa | 10000 kPa | 15000 kPa | 20000 kPa | 25000 kPa | 30000 kPa | 35000 kPa | 40000 kPa | 45000 kPa | 50000 kPa
298.15 K, x2 = 0.1015 | 1393.9 | 1400.6 | 1403.7 | 1406.9 | 1409.8 | 1412.7 | 1415.3 | 1418.1 | 1420.9 | 1423.5
298.15 K, x2 = 0.201 | 1376.9 | 1383.6 | 1386.7 | 1389.9 | 1392.8 | 1395.6 | 1398.2 | 1401 | 1403.8 | 1406.4
298.15 K, x2 = 0.3001 | 1356.9 | 1363.7 | 1366.6 | 1369.8 | 1372.7 | 1375.6 | 1378.4 | 1381.2 | 1383.9 | 1386.5
298.15 K, x2 = 0.4102 | 1330.3 | 1337.1 | 1340.2 | 1343.3 | 1346.2 | 1349.1 | 1351.9 | 1354.7 | 1357.6 | 1360.2
298.15 K, x2 = 0.5003 | 1304.5 | 1311.4 | 1314.4 | 1317.5 | 1320.4 | 1323.3 | 1326.2 | 1329.1 | 1331.9 | 1334.5
298.15 K, x2 = 0.6003 | 1269.5 | 1276.3 | 1279.4 | 1282.6 | 1285.5 | 1288.4 | 1291.3 | 1294 | 1296.7 | 1299.3
298.15 K, x2 = 0.7003 | 1225.7 | 1232.4 | 1235.5 | 1238.6 | 1241.5 | 1244.4 | 1247.3 | 1250.1 | 1252.8 | 1255.3
298.15 K, x2 = 0.8 | 1169.1 | 1175.8 | 1178.9 | 1182 | 1184.8 | 1187.7 | 1190.6 | 1193.3 | 1196.1 | 1198.6
298.15 K, x2 = 0.9 | 1093.1 | 1099.7 | 1102.6 | 1105.7 | 1108.4 | 1111.3 | 1114.1 | 1117 | 1119.8 | 1122.2
318.15 K, x2 = 0.1015 | 1377.3 | 1384.1 | 1387.6 | 1390.6 | 1393.7 | 1396.8 | 1399.9 | 1402.8 | 1405.7 | 1408.4
318.15 K, x2 = 0.201 | 1360 | 1366.8 | 1370.3 | 1373.3 | 1376.4 | 1379.5 | 1382.6 | 1385.4 | 1388.3 | 1391
318.15 K, x2 = 0.3001 | 1339.7 | 1346.6 | 1350 | 1353 | 1356.1 | 1359.2 | 1362.3 | 1365.2 | 1368.1 | 1370.8
318.15 K, x2 = 0.4102 | 1312.9 | 1319.9 | 1323.3 | 1326.4 | 1329.6 | 1332.7 | 1335.9 | 1338.8 | 1341.7 | 1344.5
318.15 K, x2 = 0.5003 | 1286.7 | 1293.8 | 1297.3 | 1300.4 | 1303.6 | 1306.7 | 1309.9 | 1312.8 | 1315.7 | 1318.5
318.15 K, x2 = 0.6003 | 1251.6 | 1258.8 | 1262.2 | 1265.4 | 1268.7 | 1271.8 | 1275 | 1277.9 | 1280.8 | 1283.5
318.15 K, x2 = 0.7003 | 1207.7 | 1215 | 1218.3 | 1221.5 | 1224.8 | 1227.8 | 1231 | 1233.9 | 1236.8 | 1239.5
318.15 K, x2 = 0.8 | 1150.9 | 1158.4 | 1161.7 | 1164.8 | 1168.1 | 1171.1 | 1174.2 | 1177.1 | 1180.1 | 1182.9
318.15 K, x2 = 0.9 | 1074.5 | 1082 | 1085.2 | 1088.4 | 1091.8 | 1094.8 | 1098 | 1100.8 | 1103.7 | 1106.6
348.15 K, x2 = 0.1015 | 1351.4 | 1358.7 | 1362.3 | 1366 | 1369.4 | 1372.6 | 1375.9 | 1378.9 | 1382.1 | 1384.8
348.15 K, x2 = 0.201 | 1333.7 | 1341.1 | 1344.8 | 1348.5 | 1352 | 1355.3 | 1358.4 | 1361.5 | 1364.6 | 1367.5
348.15 K, x2 = 0.3001 | 1313 | 1320.5 | 1324.2 | 1328 | 1331.5 | 1334.8 | 1338.1 | 1341.2 | 1344.4 | 1347.3
348.15 K, x2 = 0.4102 | 1285.7 | 1293.4 | 1297.2 | 1301 | 1304.6 | 1308 | 1311.3 | 1314.5 | 1317.7 | 1320.7
348.15 K, x2 = 0.5003 | 1259.5 | 1267.3 | 1271 | 1274.7 | 1278.4 | 1281.8 | 1285.2 | 1288.4 | 1291.6 | 1294.6
348.15 K, x2 = 0.6003 | 1224.1 | 1232.1 | 1235.9 | 1239.6 | 1243.2 | 1246.6 | 1250.1 | 1253.3 | 1256.5 | 1259.6
348.15 K, x2 = 0.7003 | 1179.9 | 1188.1 | 1191.9 | 1195.6 | 1199.3 | 1202.6 | 1206.1 | 1209.4 | 1212.7 | 1215.8
348.15 K, x2 = 0.8 | 1122.6 | 1130.9 | 1134.8 | 1138.7 | 1142.5 | 1145.9 | 1149.4 | 1152.8 | 1156 | 1159.2
348.15 K, x2 = 0.9 | 1046 | 1054.5 | 1058.3 | 1062.2 | 1066 | 1069.5 | 1073 | 1076.5 | 1079.7 | 1083
